Results as given in patent publication US12678488B2, “Batch management method for improving farrowing rate or number of piglets born alive in swine” (priority 2024, dated 2026).
Marks after values point to notes of the source that are not given here.

Tested on: Landrace x Large White reserve sows
Experiment: Heat detection: estrus rate and estrus time in gilts, different doses (Example 2)
Type: in vivo, pigs
Settings: gilts
Text: Landrace x Large White reserve sows, about 230 days old, were randomly divided into a batch farrowing with FTAI and batch farrowing with FTAI combined with different doses of 1-[bis(4-cyanophenyl)methyl]-1,2,4-triazole groups, and during the experiment, the experimental sows in each group were fed regularly and gained free access to water according to the requirements of feeding management in the farm.
Referring to the dosage of 1-[bis(4-cyanophenyl)methyl]-1,2,4-triazole in clinical medicine and using standard weight-dosage conversion, the recommended dosage of 1-[bis(4-cyanophenyl)methyl]-1,2,4-triazole for sows was 50-150 μg/kg·BW/day, orally for consecutive 5 days, as derived by conversion. In addition, the applicant previously studied uniparous cows, and in the ovulation induction scheme, the reference dosage of 1-[bis(4-cyanophenyl)methyl]-1,2,4-triazole was 60-200 μg/kg·BW, administered in a single dose; furthermore, by means of conversion in conjunction with the dosage for model animals (mice) previously in the laboratory, various dosages were designed. The treatment methods of hormones and drugs for sows in each group were as follows: • batch farrowing with FTAI: the sows were fed with an altrenogest oral solution at 20 mg/animal at the same time every day, for 18 days; PMSG at 1000 IU/animal was injected intramuscularly 42 h after the last feeding with altrenogest, GnRH at 100 μg/animal was injected intramuscularly 80 h after the injection of PMSG, a first timed insemination was performed 24 h after the injection of GnRH, and a second timed insemination was performed 16 h after the first insemination.
(§1) Treatment group 1: the hormone treatment and mating schemes for gilts were the same as FTAI. The difference lay in that PMSG at 1000 IU/gilt was injected intramuscularly 42 h after the last feeding with altrenogest, and 1-[bis(4-cyanophenyl)methyl]-1,2,4-triazole at 12 μg/kg·BW/day was administered orally 8 h after the injection of PMSG, for 1 day.
as §1, with “2:” for “1:”, “2 days.” for “1 day.”
as §1, with “3:” for “1:”, “20” for “12”
as §1, with “4:” for “1:”, “sows” for “gilts”, “1-[bis (4-cyanophenyl)methyl]-1,2,4-triazole” for “1-[bis(4-cyanophenyl)methyl]-1,2,4-triazole”, “20” for “12”, “2 days.” for “1 day.”
as §1, with “5:” for “1:”, “IU/animal” for “IU/gilt”, “20” for “12”, “3 days.” for “1 day.”
as §1, with “6:” for “1:”, “IU/animal” for “IU/gilt”, “20” for “12”, “5 days.” for “1 day.”
Treatment group 7: the hormone treatment and mating schemes for gilts were the same as FTAI. […]

[1] = Example 2 Treatment group 1: 12 μg/kg·BW/day orally, 1 day
[2] = Example 2 Treatment group 2: 12 μg/kg·BW/day orally, 2 days
[3] = Example 2 Treatment group 3: 20 μg/kg·BW/day orally, 1 day
[4] = Example 2 Treatment group 4: 20 μg/kg·BW/day orally, 2 days
[5] = Example 2 Treatment group 5: 20 μg/kg·BW/day orally, 3 days
[6] = Example 2 Treatment group 6: 20 μg/kg·BW/day orally, 5 days
[7] = Example 2 Treatment group 7: 40 μg/kg·BW/day orally, 1 day
[8] = Example 2 Treatment group 8: 40 μg/kg·BW/day orally, 5 days
[9] = Example 2 Treatment group 9: 80 μg/kg·BW/day orally, 5 days
[10] = Example 2 Treatment group 10: 160 μg/kg·BW/day orally, 5 days

N#Cc1ccc(C(c2ccc(C#N)cc2)n2cncn2)cc1 [1-[bis(4-cyanophenyl)methyl]-1,2,4-triazole]
Estrus number [1]: 27
Estrus rate (%) [1]: 90.00^a %
Interval from stopping taking Altrenogest to estrus (days) [1]: 6.13 ± 0.12^b days
Estrus number [2]: 23
Estrus rate (%) [2]: 85.19^a %
Interval from stopping taking Altrenogest to estrus (days) [2]: 6.07 ± 0.13^b days
Estrus number [3]: 22
Estrus rate (%) [3]: 88.00^a %
Interval from stopping taking Altrenogest to estrus (days) [3]: 6.11 ± 0.12^b days
Estrus number [4]: 21
Estrus rate (%) [4]: 84.00^a %
Interval from stopping taking Altrenogest to estrus (days) [4]: 6.07 ± 0.15^b days
Estrus number [5]: 24
Estrus rate (%) [5]: 92.31^a %
Interval from stopping taking Altrenogest to estrus (days) [5]: 6.19 ± 0.16^b days
Estrus number [6]: 20
Estrus rate (%) [6]: 76.92^b %
Interval from stopping taking Altrenogest to estrus (days) [6]: 6.70 ± 0.16^a days
Estrus number [7]: 22
Estrus rate (%) [7]: 84.61^a %
Interval from stopping taking Altrenogest to estrus (days) [7]: 6.77 ± 0.14^a days
Estrus number [8]: 4
Estrus rate (%) [8]: 16.67^b %
Interval from stopping taking Altrenogest to estrus (days) [8]: 6.25 ± 0.14^b days
Estrus number [9]: 0
Estrus rate (%) [9]: 0.00^b %
Estrus number [10]: 0
Estrus rate (%) [10]: 0.00^b %
Number of estrous animals at different times after stopping Altrenogest (day/animal) (day 4.5, Example 2 Treatment group 1: 12 μg/kg·BW/day orally, 1 day): 0 animal
Number of estrous animals at different times after stopping Altrenogest (day/animal) (day 4.5, Example 2 Treatment group 2: 12 μg/kg·BW/day orally, 2 days): 0 animal
Number of estrous animals at different times after stopping Altrenogest (day/animal) (day 4.5, Example 2 Treatment group 3: 20 μg/kg·BW/day orally, 1 day): 0 animal
Number of estrous animals at different times after stopping Altrenogest (day/animal) (day 4.5, Example 2 Treatment group 4: 20 μg/kg·BW/day orally, 2 days): 0 animal
Number of estrous animals at different times after stopping Altrenogest (day/animal) (day 4.5, Example 2 Treatment group 5: 20 μg/kg·BW/day orally, 3 days): 0 animal
Number of estrous animals at different times after stopping Altrenogest (day/animal) (day 4.5, Example 2 Treatment group 6: 20 μg/kg·BW/day orally, 5 days): 0 animal
Number of estrous animals at different times after stopping Altrenogest (day/animal) (day 4.5, Example 2 Treatment group 7: 40 μg/kg·BW/day orally, 1 day): 0 animal
Number of estrous animals at different times after stopping Altrenogest (day/animal) (day 4.5, Example 2 Treatment group 8: 40 μg/kg·BW/day orally, 5 days): 0 animal
Number of estrous animals at different times after stopping Altrenogest (day/animal) (day 5, Example 2 Treatment group 1: 12 μg/kg·BW/day orally, 1 day): 1 animal
Number of estrous animals at different times after stopping Altrenogest (day/animal) (day 5, Example 2 Treatment group 2: 12 μg/kg·BW/day orally, 2 days): 0 animal
Number of estrous animals at different times after stopping Altrenogest (day/animal) (day 5, Example 2 Treatment group 3: 20 μg/kg·BW/day orally, 1 day): 0 animal
Number of estrous animals at different times after stopping Altrenogest (day/animal) (day 5, Example 2 Treatment group 4: 20 μg/kg·BW/day orally, 2 days): 0 animal
Number of estrous animals at different times after stopping Altrenogest (day/animal) (day 5, Example 2 Treatment group 5: 20 μg/kg·BW/day orally, 3 days): 2 animal
Number of estrous animals at different times after stopping Altrenogest (day/animal) (day 5, Example 2 Treatment group 6: 20 μg/kg·BW/day orally, 5 days): 1 animal
Number of estrous animals at different times after stopping Altrenogest (day/animal) (day 5, Example 2 Treatment group 7: 40 μg/kg·BW/day orally, 1 day): 0 animal
Number of estrous animals at different times after stopping Altrenogest (day/animal) (day 5, Example 2 Treatment group 8: 40 μg/kg·BW/day orally, 5 days): 0 animal
Number of estrous animals at different times after stopping Altrenogest (day/animal) (day 5.5, Example 2 Treatment group 1: 12 μg/kg·BW/day orally, 1 day): 8 animal
Number of estrous animals at different times after stopping Altrenogest (day/animal) (day 5.5, Example 2 Treatment group 2: 12 μg/kg·BW/day orally, 2 days): 9 animal
Number of estrous animals at different times after stopping Altrenogest (day/animal) (day 5.5, Example 2 Treatment group 3: 20 μg/kg·BW/day orally, 1 day): 7 animal
Number of estrous animals at different times after stopping Altrenogest (day/animal) (day 5.5, Example 2 Treatment group 4: 20 μg/kg·BW/day orally, 2 days): 8 animal
